Source: EPA's ToxRefDB 2

Columns and labels:
dog [1] = settings: Sub-acute repeat dose toxicity; beagle; Oral; Gavage/Intubation; dose end: 5 day; group: systemic; systemic / in life observation / clinical signs / abnormal feces + systemic / in life observation / clinical signs / emesis
rat [2] = settings: Sub-acute repeat dose toxicity, sprague dawley, Oral, Gavage/Intubation, dose end: 29 day, group: systemic
dog [3] = settings: Sub-acute repeat dose toxicity, beagle, Oral, Gavage/Intubation, dose end: 5 day, group: systemic
rat [4] = settings: Sub-acute repeat dose toxicity; sprague dawley; Oral; Gavage/Intubation; dose end: 9 day; group: systemic; systemic / in life observation / body weight / body weight gain + systemic / in life observation / food consumption / food consumption
dog [5] = settings: Sub-acute repeat dose toxicity; beagle; Oral; Gavage/Intubation; dose end: 29 day; group: systemic; systemic / clinical chemistry / hepatic mixed function oxidase (mfo) assay / hepatic mixed function oxidase (mfo) assay + systemic / in life…
rabbit [6] = settings: Sub-acute repeat dose toxicity; new zealand white; Oral; Gavage/Intubation; dose end: 5 day; group: systemic; systemic / in life observation / body weight / body weight + systemic / in life observation / clinical signs / altered breathing rate + …
dog [7] = settings: Subchronic oral toxicity in nonrodent, beagle, Gavage/Intubation, dose end: 90 day, group: systemic
mouse [8] = settings: Combined chronic toxicity/carcinogenicity, b6c3f1, Oral, Gavage/Intubation, dose end: 103 week, group: systemic
rat [9] = settings: Combined chronic toxicity/carcinogenicity, fischer, Oral, Gavage/Intubation, dose end: 103 week, group: systemic
rat [10] = settings: Prenatal developmental toxicity study; sprague dawley; Oral; Gavage/Intubation; dose end: 19 GD; group: maternal; systemic / in life observation / body weight / body weight gain + systemic / in life observation / food consumption / food consumption + …
rat [11] = settings: Peri- and post-natal toxicity study (Segment III), sprague dawley, Oral, Gavage/Intubation, dose end: 40 PND
dog [12] = settings: Chronic toxicity; beagle; Oral; Capsule; dose end: 12 month; group: systemic; systemic / in life observation / body weight / body weight gain + systemic / clinical chemistry / albumin / albumin + systemic / clinical …
dog [13] = settings: Chronic toxicity, beagle, Oral, Capsule, dose end: 28 day, group: systemic
rat [14] = settings: Prenatal developmental toxicity study, sprague dawley, Oral, Gavage/Intubation, dose end: 19 GD
rat [15] = settings: Combined chronic toxicity/carcinogenicity, sprague dawley, Oral, Feed, dose end: 104 week, group: systemic
rabbit [16] = settings: Prenatal developmental toxicity study, new zealand white, Oral, Gavage/Intubation, dose end: 28 GD
rabbit [17] = settings: Prenatal developmental toxicity study, new zealand white, Oral, Gavage/Intubation, dose end: 19 GD
rat [18] = settings: Multigenerational reproductive toxicity study, sprague dawley, Oral, Feed, dose end: 2 generation
mouse [19] = settings: Carcinogenicity, b6c3f1, Oral, Feed, dose end: 104 week, group: systemic
rat [20] = settings: Chronic toxicity, fischer, Oral, Feed, dose end: 24 month, group: systemic
mouse [21] = settings: Carcinogenicity, cd1, Oral, Feed, dose end: 113 week, group: systemic
rabbit [22] = settings: Prenatal developmental toxicity study, new zealand white, Oral, Gavage/Intubation, dose end: 18 GD
[23] = systemic / clinical chemistry / 5' nucleotidase / 5' nucleotidase + systemic / clinical chemistry / albumin / albumin + systemic / clinical …
[24] = systemic / clinical chemistry / cholesterol / cholesterol + systemic / organ weight / liver / absolute + systemic / pathology microscopic / …
[25] = systemic / in life observation / clinical signs / abnormal feces
[26] = systemic / in life observation / clinical signs / abnormal feces + systemic / in life observation / clinical signs / emesis
[27] = systemic / in life observation / clinical signs / abnormal feces + systemic / organ weight / liver / absolute + systemic / pathology …
[28] = systemic / pathology microscopic / liver / vacuolization cytoplasmic
[29] = systemic / pathology microscopic / liver / vacuolization cytoplasmic + systemic / in life observation / body weight / body weight
[30] = systemic / pathology microscopic / blood / leukemia mononuclear + systemic / in life observation / body weight / body weight
[31] = group: maternal, reproductive / reproductive performance / estrous cycle / corpora lutea
[32] = group: parental, systemic / organ weight / liver / absolute + systemic / organ weight / thyroid gland / absolute + systemic / pathology microscopic / ovary…
[33] = group: parental, systemic / organ weight / liver / absolute + systemic / pathology microscopic / ovary / follicle count + systemic / pathology microscopic / …
[34] = systemic / in life observation / clinical signs / emesis + systemic / organ weight / liver / absolute + systemic / organ weight / brain / …
[35] = group: developmental, developmental / developmental malformation / bone / incomplete ossification + developmental / developmental malformation / bone / misaligned…
[36] = group: maternal, systemic / in life observation / body weight / body weight gain + systemic / in life observation / clinical signs / respiration (rales)
[37] = group: maternal, systemic / in life observation / body weight / body weight gain + systemic / in life observation / clinical signs / respiration (rales) + …
[38] = systemic / pathology microscopic / stomach / acanthosis + systemic / pathology microscopic / stomach / erosion + systemic / pathology …
[39] = systemic / pathology microscopic / testes / interstitial cell tumor nos + systemic / pathology microscopic / thyroid gland / adenoma/…
[40] = group: developmental, developmental / developmental malformation / bone / domed head + developmental / developmental malformation / bone / misshapen fontanel + …
[41] = group: maternal, systemic / in life observation / food consumption / food consumption
[42] = group: developmental, developmental / developmental malformation / bone / unossified
[43] = group: developmental, developmental / developmental malformation / bone / unossified + developmental / developmental malformation / bone / delayed ossification + …
[44] = group: maternal, systemic / in life observation / body weight / body weight gain + systemic / in life observation / food consumption / food consumption + …
[45] = group: offspring, systemic / in life observation / body weight / offspring (pup) weight
[46] = group: parental, systemic / in life observation / body weight / body weight + systemic / in life observation / body weight / body weight gain + systemic / in…
[47] = group: reproductive, reproductive / reproductive performance / fertility / fertility
[48] = systemic / pathology microscopic / stomach / hyperkeratosis + systemic / pathology microscopic / intestine small / carcinoma + systemic / …
[49] = systemic / pathology microscopic / stomach / hyperkeratosis + systemic / pathology microscopic / intestine small / hyperplasia + systemic / …
[50] = systemic / pathology microscopic / stomach / hyperkeratosis
[51] = systemic / pathology microscopic / stomach / hyperkeratosis + systemic / in life observation / body weight / body weight gain + systemic / …
[52] = systemic / hematology / hematocrit (hct) / hematocrit (hct) + systemic / in life observation / clinical signs / weakness + systemic / …
[53] = group: developmental, developmental / developmental malformation / bone / [other] + developmental / developmental malformation / bone / misshapen fontanel + …
[54] = group: maternal, reproductive / reproductive performance / aborted / aborted + reproductive / reproductive performance / resorptions / resorptions + systemic…

SMILES: NC(=O)N(O)[C@@H]1C=C[C@H](Oc2cccc(Oc3ccc(F)cc3)c2)C1
- LEL (dog [1]): 250 mg/kg/day
- LOAEL (dog [1]): > 500 mg/kg/day
- NEL (dog [1]): < 250 mg/kg/day
- NOAEL (dog [1]): ≥ 500 mg/kg/day
- LOAEL (rat [2]; [23]): > 400 mg/kg/day
- NEL (rat [2]; [23]): 10 mg/kg/day
- NOAEL (rat [2]; [23]): ≥ 400 mg/kg/day
- LEL (rat [2]; [24]): 40 mg/kg/day
- LEL (dog [3]; [25]): 5 mg/kg/day
- NEL (dog [3]; [25]): < 5 mg/kg/day
- LOAEL (dog [3]; [26]): > 125 mg/kg/day
- NOAEL (dog [3]; [26]): ≥ 125 mg/kg/day
- LEL (rat [4]): 400 mg/kg/day
- LOAEL (rat [4]): > 400 mg/kg/day
- NEL (rat [4]): 200 mg/kg/day
- NOAEL (rat [4]): ≥ 400 mg/kg/day
- LEL (dog [5]): 125 mg/kg/day
- LOAEL (dog [5]): > 125 mg/kg/day
- NEL (dog [5]): 25 mg/kg/day
- NOAEL (dog [5]): ≥ 125 mg/kg/day
- LEL (rabbit [6]): 400 mg/kg/day
- LOAEL (rabbit [6]): > 400 mg/kg/day
- NEL (rabbit [6]): 40 mg/kg/day
- NOAEL (rabbit [6]): ≥ 400 mg/kg/day
- NEL (dog [7]; [24]): 5 mg/kg/day
- LOAEL (dog [7]; [27]): > 125 mg/kg/day
- NOAEL (dog [7]; [27]): ≥ 125 mg/kg/day
- LEL (dog [7]; systemic / organ weight / liver / absolute): 25 mg/kg/day

SMILES: C=CCN=C=S [Allyl isothiocyanate]
- LEL (mouse [8]; [28]): 12 mg/kg/day
- NEL (mouse [8]; [28]): < 12 mg/kg/day
- LOAEL (mouse [8]; [29]): > 25 mg/kg/day
- NOAEL (mouse [8]; [29]): ≥ 25 mg/kg/day
- LOAEL (rat [9]; systemic / in life observation / body weight / body weight): 25 mg/kg/day
- NOAEL (rat [9]; systemic / in life observation / body weight / body weight + systemic / pathology microscopic / blood / leukemia mononuclear + systemic / …): 12 mg/kg/day
- LEL (rat [9]; [30]): 12 mg/kg/day
- NEL (rat [9]; [30]): < 12 mg/kg/day

SMILES: CCCCOC(=O)c1ccc(O)cc1 [Butylparaben]
- LEL (rat [10]): 1000 mg/kg/day
- LOAEL (rat [10]): > 1000 mg/kg/day
- NEL (rat [10]): 100 mg/kg/day
- NOAEL (rat [10]): ≥ 1000 mg/kg/day
- LEL (rat [11]; [31]): 62.5 mg/kg/day
- LOAEL (rat [11]; [31]): > 1000 mg/kg/day
- NEL (rat [11]; [31]): < 62.5 mg/kg/day
- NOAEL (rat [11]; [31]): ≥ 1000 mg/kg/day
- LOAEL (rat [11]; [32]): > 1000 mg/kg/day
- NOAEL (rat [11]; [32]): ≥ 1000 mg/kg/day
- LEL (rat [11]; [33]): 62.5 mg/kg/day
- NEL (rat [11]; [33]): < 62.5 mg/kg/day

SMILES: O=C1c2ccccc2C(=O)N1SC(Cl)(Cl)Cl [Folpet]
- LEL (dog [12]): 60 mg/kg/day
- LOAEL (dog [12]): 60 mg/kg/day
- NEL (dog [12]): 10 mg/kg/day
- NOAEL (dog [12]): 10 mg/kg/day
- LOAEL (dog [13]; systemic / in life observation / body weight / body weight gain + systemic / in life observation / body weight / body weight): 60 mg/kg/day
- NOAEL (dog [13]; systemic / in life observation / body weight / body weight gain + systemic / in life observation / body weight / body weight + systemic / in…): 20 mg/kg/day
- LEL (dog [13]; [34]): 20 mg/kg/day
- NEL (dog [13]; [34]): < 20 mg/kg/day
- LEL (rat [14]; [35]): 360 mg/kg/day
- LOAEL (rat [14]; [35]): 360 mg/kg/day
- NEL (rat [14]; [35]): 60 mg/kg/day
- NOAEL (rat [14]; [35]): 60 mg/kg/day
- LEL (rat [14]; [36]): 60 mg/kg/day
- LOAEL (rat [14]; [36]): 60 mg/kg/day
- NEL (rat [14]; [37]): 10 mg/kg/day
- NOAEL (rat [14]; [37]): 10 mg/kg/day
- LOAEL (rat [15]; [38]): 35 mg/kg/day
- NOAEL (rat [15]; [38]): 9 mg/kg/day
- LEL (rat [15]; [39]): 9 mg/kg/day
- NEL (rat [15]; [39]): < 9 mg/kg/day
- LEL (rabbit [16]; [40]): 20 mg/kg/day
- LOAEL (rabbit [16]; [40]): 20 mg/kg/day
- NEL (rabbit [16]; [40]): 10 mg/kg/day
- NOAEL (rabbit [16]; [40]): 10 mg/kg/day
- LEL (rabbit [16]; [41]): 20 mg/kg/day
- LOAEL (rabbit [16]; [41]): 20 mg/kg/day
- NEL (rabbit [16]; [41]): 10 mg/kg/day
- NOAEL (rabbit [16]; [41]): 10 mg/kg/day
- LEL (rabbit [17]; [42]): 40 mg/kg/day
- LOAEL (rabbit [17]; [42]): 40 mg/kg/day
- NEL (rabbit [17]; [43]): 10 mg/kg/day
- NOAEL (rabbit [17]; [43]): 10 mg/kg/day
- LOAEL (rabbit [17]; group: maternal, systemic / in life observation / body weight / body weight gain + systemic / in life observation / food consumption / food consumption): 160 mg/kg/day
- LEL (rabbit [17]; [44]): 160 mg/kg/day
- NEL (rabbit [17]; [44]): 40 mg/kg/day
- NOAEL (rabbit [17]; [44]): 40 mg/kg/day
- LEL (rat [18]; [45]): 180 mg/kg/day
- LOAEL (rat [18]; [45]): 180 mg/kg/day
- NEL (rat [18]; [45]): 40 mg/kg/day
- NOAEL (rat [18]; [45]): 40 mg/kg/day
- LOAEL (rat [18]; [46]): 180 mg/kg/day
- NEL (rat [18]; [46]): 10 mg/kg/day
- NOAEL (rat [18]; [46]): 40 mg/kg/day
- LEL (rat [18]; group: parental, systemic / in life observation / food consumption / food consumption): 40 mg/kg/day
- LEL (rat [18]; [47]): 180 mg/kg/day
- LOAEL (rat [18]; [47]): 180 mg/kg/day
- NEL (rat [18]; [47]): 40 mg/kg/day
- NOAEL (rat [18]; [47]): 40 mg/kg/day
- LOAEL (mouse [19]; [48]): 150 mg/kg/day
- NOAEL (mouse [19]; [48]): < 150 mg/kg/day
- LEL (mouse [19]; [49]): 150 mg/kg/day
- NEL (mouse [19]; [49]): < 150 mg/kg/day
- LEL (rat [20]; [50]): 81 mg/kg/day
- LOAEL (rat [20]; [50]): 81 mg/kg/day
- NEL (rat [20]; [51]): 12 mg/kg/day
- NOAEL (rat [20]; [51]): 12 mg/kg/day
- LEL (mouse [21]; [52]): 93 mg/kg/day
- NEL (mouse [21]; [52]): < 93 mg/kg/day
- LOAEL (mouse [21]; systemic / pathology microscopic / intestine small / hyperplasia): 1280 mg/kg/day
- NOAEL (mouse [21]; systemic / pathology microscopic / intestine small / hyperplasia + systemic / pathology microscopic / intestine small / adenocarcinoma + …): 502 mg/kg/day
- LEL (rabbit [22]; [53]): 60 mg/kg/day
- LOAEL (rabbit [22]; [53]): > 60 mg/kg/day
- NEL (rabbit [22]; [53]): < 60 mg/kg/day
- NOAEL (rabbit [22]; [53]): ≥ 60 mg/kg/day
- LEL (rabbit [22]; [54]): 60 mg/kg/day
- LOAEL (rabbit [22]; [54]): > 60 mg/kg/day
- NEL (rabbit [22]; [54]): < 60 mg/kg/day
- NOAEL (rabbit [22]; [54]): ≥ 60 mg/kg/day
